From PubChem BioAssay (NCI)
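Tested at 5 concentrations; 48 h exposure; 96-well plates; endpoints linearly interpolated, else capped at highest concentration. GI50: concentration for 50% inhibition of growth. TGI is the concentration that stops growth completely.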

Tests used:
Assay in all cases: NCI tumour cell line growth inhibition, 48 h
PC-3 prostate = test system: PC-3 prostate
U251 CNS = test system: U251 CNS
T-47D breast = test system: T-47D breast
HCC-2998 colon = test system: HCC-2998 colon
HL-60(TB) leukemia = test system: HL-60(TB) leukemia
NCI-H23 lung = test system: NCI-H23 lung
TK-10 renal = test system: TK-10 renal
M14 melanoma = test system: M14 melanoma
LOX IMVI melanoma = test system: LOX IMVI melanoma
NCI/ADR-RES ovarian = test system: NCI/ADR-RES ovarian
UACC-257 melanoma = test system: UACC-257 melanoma
IGROV1 ovarian = test system: IGROV1 ovarian
SK-MEL-28 melanoma = test system: SK-MEL-28 melanoma
NCI-H522 lung = test system: NCI-H522 lung
HS 578T breast = test system: HS 578T breast
SK-MEL-5 melanoma = test system: SK-MEL-5 melanoma
HCT-116 colon = test system: HCT-116 colon
A549 NSCLC = test system: A549 NSCLC
MOLT-4 leukemia = test system: MOLT-4 leukemia
OVCAR-5 ovarian = test system: OVCAR-5 ovarian
SNB-75 CNS = test system: SNB-75 CNS
HOP-62 NSCLC = test system: HOP-62 NSCLC
NCI-H226 lung = test system: NCI-H226 lung
KM12 colon = test system: KM12 colon
ACHN renal = test system: ACHN renal
SNB-19 CNS = test system: SNB-19 CNS
786-0 renal = test system: 786-0 renal
HT29 colon = test system: HT29 colon
OVCAR-4 ovarian = test system: OVCAR-4 ovarian
UACC-62 melanoma = test system: UACC-62 melanoma
SK-MEL-2 melanoma = test system: SK-MEL-2 melanoma
SF-539 CNS = test system: SF-539 CNS
SK-OV-3 ovarian = test system: SK-OV-3 ovarian
CCRF-CEM leukemia = test system: CCRF-CEM leukemia
COLO 205 colon = test system: COLO 205 colon
HOP-92 NSCLC = test system: HOP-92 NSCLC
HCT-15 colon = test system: HCT-15 colon
DU-145 prostate = test system: DU-145 prostate
NCI-H460 lung = test system: NCI-H460 lung
RXF 393 renal = test system: RXF 393 renal
SR leukemia = test system: SR leukemia
K-562 leukemia = test system: K-562 leukemia
OVCAR-3 ovarian = test system: OVCAR-3 ovarian
MDA-MB-231 breast = test system: MDA-MB-231 breast
OVCAR-8 ovarian = test system: OVCAR-8 ovarian
SF-295 CNS = test system: SF-295 CNS
SN12C renal = test system: SN12C renal
A498 renal = test system: A498 renal
SW-620 colon = test system: SW-620 colon
MALME-3M melanoma = test system: MALME-3M melanoma
SF-268 CNS = test system: SF-268 CNS
UO-31 renal = test system: UO-31 renal
RPMI-8226 leukemia = test system: RPMI-8226 leukemia
EKVX NSCLC = test system: EKVX NSCLC
CAKI-1 renal = test system: CAKI-1 renal
MDA-MB-435 = test system: MDA-MB-435
BT-549 breast = test system: BT-549 breast

Which GI50 (PC-3 prostate) does the source give for `O=C1C=C(SCCO)C(=O)c2ccccc21` here?
Its GI50 is 2450 nM.

What about the TGI (PC-3 prostate) of the same molecule?
The TGI was 8890 nM.

And the GI50 (U251 CNS)?
Its GI50 is 1760 nM.

What about the TGI (U251 CNS) of the same molecule?
Its TGI is 3250 nM.

What about the GI50 (T-47D breast) of the same molecule?
Its GI50 is 1470 nM.

What about the TGI (T-47D breast) of the same molecule?
Its TGI is 4100 nM.

What about the GI50 (HCC-2998 colon) of the same molecule?
Its GI50 is 2780 nM.

What about the TGI (HCC-2998 colon) of the same molecule?
Its TGI is 6800 nM.

What about the GI50 (HL-60(TB) leukemia) of the same molecule?
The GI50 was 451 nM.

And the TGI (HL-60(TB) leukemia)?
The TGI was 2460 nM.

What about the GI50 (NCI-H23 lung) of the same molecule?
Its GI50 is 1490 nM.

And the TGI (NCI-H23 lung)?
Its TGI is 3420 nM.

And the GI50 (TK-10 renal)?
Its GI50 is 2750 nM.

And the TGI (TK-10 renal)?
The TGI was 6200 nM.

And the GI50 (M14 melanoma)?
The GI50 was 1780 nM.

And the TGI (M14 melanoma)?
The TGI was 3360 nM.

What about the GI50 (LOX IMVI melanoma) of the same molecule?
The GI50 was 1530 nM.

And the TGI (LOX IMVI melanoma)?
The TGI was 3260 nM.

What about the GI50 (NCI/ADR-RES ovarian) of the same molecule?
The GI50 was 2160 nM.

And the TGI (NCI/ADR-RES ovarian)?
The TGI was 5820 nM.

What about the GI50 (UACC-257 melanoma) of the same molecule?
The GI50 was 1960 nM.

And the TGI (UACC-257 melanoma)?
The TGI was 3410 nM.

And the GI50 (IGROV1 ovarian)?
The GI50 was 3610 nM.

What about the TGI (IGROV1 ovarian) of the same molecule?
The TGI was 14700 nM.

And the GI50 (SK-MEL-28 melanoma)?
Its GI50 is 2010 nM.

And the TGI (SK-MEL-28 melanoma)?
Its TGI is 4020 nM.

And the GI50 (NCI-H522 lung)?
Its GI50 is 1890 nM.

And the TGI (NCI-H522 lung)?
The TGI was 3970 nM.

What about the GI50 (HS 578T breast) of the same molecule?
The GI50 was 2210 nM.

And the TGI (HS 578T breast)?
Its TGI is 7500 nM.

And the GI50 (SK-MEL-5 melanoma)?
Its GI50 is 1610 nM.

And the TGI (SK-MEL-5 melanoma)?
The TGI was 2970 nM.

And the GI50 (HCT-116 colon)?
Its GI50 is 1800 nM.

What about the TGI (HCT-116 colon) of the same molecule?
Its TGI is 3680 nM.

What about the GI50 (A549 NSCLC) of the same molecule?
Its GI50 is 2240 nM.

And the TGI (A549 NSCLC)?
The TGI was 4590 nM.

What about the GI50 (MOLT-4 leukemia) of the same molecule?
Its GI50 is 1260 nM.

And the TGI (MOLT-4 leukemia)?
The TGI was 4510 nM.

And the GI50 (OVCAR-5 ovarian)?
Its GI50 is 4920 nM.

And the TGI (OVCAR-5 ovarian)?
The TGI was 21400 nM.

And the GI50 (SNB-75 CNS)?
The GI50 was 1370 nM.

And the TGI (SNB-75 CNS)?
Its TGI is 2680 nM.

And the GI50 (HOP-62 NSCLC)?
The GI50 was 1700 nM.

What about the TGI (HOP-62 NSCLC) of the same molecule?
The TGI was 3550 nM.

And the GI50 (NCI-H226 lung)?
The GI50 was 16300 nM.

What about the TGI (NCI-H226 lung) of the same molecule?
Its TGI is 36600 nM.

And the GI50 (KM12 colon)?
Its GI50 is 2610 nM.

What about the TGI (KM12 colon) of the same molecule?
The TGI was 9860 nM.

What about the GI50 (ACHN renal) of the same molecule?
The GI50 was 1540 nM.

And the TGI (ACHN renal)?
Its TGI is 2870 nM.

And the GI50 (SNB-19 CNS)?
Its GI50 is 1900 nM.

What about the TGI (SNB-19 CNS) of the same molecule?
Its TGI is 4180 nM.

And the GI50 (786-0 renal)?
Its GI50 is 2270 nM.

What about the TGI (786-0 renal) of the same molecule?
The TGI was 6460 nM.

What about the GI50 (HT29 colon) of the same molecule?
The GI50 was 2580 nM.

And the TGI (HT29 colon)?
The TGI was 6730 nM.

What about the GI50 (OVCAR-4 ovarian) of the same molecule?
The GI50 was 1420 nM.

What about the TGI (OVCAR-4 ovarian) of the same molecule?
The TGI was 2750 nM.

What about the GI50 (UACC-62 melanoma) of the same molecule?
Its GI50 is 1600 nM.

And the TGI (UACC-62 melanoma)?
The TGI was 3040 nM.

And the GI50 (SK-MEL-2 melanoma)?
Its GI50 is 1940 nM.

What about the TGI (SK-MEL-2 melanoma) of the same molecule?
Its TGI is 3910 nM.

What about the GI50 (SF-539 CNS) of the same molecule?
Its GI50 is 1650 nM.

And the TGI (SF-539 CNS)?
Its TGI is 3030 nM.

What about the GI50 (SK-OV-3 ovarian) of the same molecule?
Its GI50 is 3970 nM.

What about the TGI (SK-OV-3 ovarian) of the same molecule?
The TGI was 16300 nM.

What about the GI50 (CCRF-CEM leukemia) of the same molecule?
Its GI50 is 1140 nM.

And the TGI (CCRF-CEM leukemia)?
Its TGI is 4790 nM.

What about the GI50 (COLO 205 colon) of the same molecule?
The GI50 was 2110 nM.

What about the TGI (COLO 205 colon) of the same molecule?
The TGI was 4290 nM.

What about the GI50 (HOP-92 NSCLC) of the same molecule?
The GI50 was 1300 nM.

And the TGI (HOP-92 NSCLC)?
The TGI was 3010 nM.

And the GI50 (HCT-15 colon)?
Its GI50 is 1910 nM.

And the TGI (HCT-15 colon)?
Its TGI is 3900 nM.

And the GI50 (DU-145 prostate)?
The GI50 was 1710 nM.

And the TGI (DU-145 prostate)?
Its TGI is 3090 nM.

What about the GI50 (NCI-H460 lung) of the same molecule?
The GI50 was 1840 nM.

And the TGI (NCI-H460 lung)?
Its TGI is 3590 nM.

What about the GI50 (RXF 393 renal) of the same molecule?
The GI50 was 1640 nM.

What about the TGI (RXF 393 renal) of the same molecule?
Its TGI is 3010 nM.

What about the GI50 (SR leukemia) of the same molecule?
Its GI50 is 2170 nM.

And the TGI (SR leukemia)?
Its TGI is 5750 nM.

What about the GI50 (K-562 leukemia) of the same molecule?
The GI50 was 1280 nM.

What about the TGI (K-562 leukemia) of the same molecule?
The TGI was 4250 nM.

And the GI50 (OVCAR-3 ovarian)?
Its GI50 is 1370 nM.

And the TGI (OVCAR-3 ovarian)?
Its TGI is 2680 nM.

What about the GI50 (MDA-MB-231 breast) of the same molecule?
Its GI50 is 1420 nM.

What about the TGI (MDA-MB-231 breast) of the same molecule?
The TGI was 3890 nM.

And the GI50 (OVCAR-8 ovarian)?
The GI50 was 2890 nM.

And the TGI (OVCAR-8 ovarian)?
Its TGI is 10800 nM.

What about the GI50 (SF-295 CNS) of the same molecule?
Its GI50 is 1620 nM.

And the TGI (SF-295 CNS)?
The TGI was 3000 nM.

What about the GI50 (SN12C renal) of the same molecule?
The GI50 was 1580 nM.

And the TGI (SN12C renal)?
Its TGI is 3040 nM.

And the GI50 (A498 renal)?
Its GI50 is 13900 nM.

What about the TGI (A498 renal) of the same molecule?
The TGI was 27000 nM.

What about the GI50 (SW-620 colon) of the same molecule?
The GI50 was 1850 nM.

What about the TGI (SW-620 colon) of the same molecule?
The TGI was 3730 nM.

And the GI50 (MALME-3M melanoma)?
The GI50 was 1810 nM.

What about the TGI (MALME-3M melanoma) of the same molecule?
The TGI was 3290 nM.

What about the GI50 (SF-268 CNS) of the same molecule?
The GI50 was 1920 nM.

What about the TGI (SF-268 CNS) of the same molecule?
Its TGI is 5070 nM.

What about the GI50 (UO-31 renal) of the same molecule?
Its GI50 is 1240 nM.

And the TGI (UO-31 renal)?
The TGI was 2490 nM.

What about the GI50 (RPMI-8226 leukemia) of the same molecule?
The GI50 was 2090 nM.

And the TGI (RPMI-8226 leukemia)?
Its TGI is 5000 nM.

What about the GI50 (EKVX NSCLC) of the same molecule?
Its GI50 is 1460 nM.

And the TGI (EKVX NSCLC)?
Its TGI is 3330 nM.

And the GI50 (CAKI-1 renal)?
Its GI50 is 2080 nM.

And the TGI (CAKI-1 renal)?
Its TGI is 6970 nM.

What about the GI50 (MDA-MB-435) of the same molecule?
The GI50 was 1340 nM.

And the TGI (MDA-MB-435)?
The TGI was 2650 nM.

And the GI50 (BT-549 breast)?
The GI50 was 1550 nM.

And the TGI (BT-549 breast)?
The TGI was 2980 nM.
